One block for each compound: values may come before it.
Target: T1, Axl (Homo sapiens, UniProt P30530)
T1 construct: endogenous in cells; host or cells: HeLa cells
T1 sequence (P30530 26-894): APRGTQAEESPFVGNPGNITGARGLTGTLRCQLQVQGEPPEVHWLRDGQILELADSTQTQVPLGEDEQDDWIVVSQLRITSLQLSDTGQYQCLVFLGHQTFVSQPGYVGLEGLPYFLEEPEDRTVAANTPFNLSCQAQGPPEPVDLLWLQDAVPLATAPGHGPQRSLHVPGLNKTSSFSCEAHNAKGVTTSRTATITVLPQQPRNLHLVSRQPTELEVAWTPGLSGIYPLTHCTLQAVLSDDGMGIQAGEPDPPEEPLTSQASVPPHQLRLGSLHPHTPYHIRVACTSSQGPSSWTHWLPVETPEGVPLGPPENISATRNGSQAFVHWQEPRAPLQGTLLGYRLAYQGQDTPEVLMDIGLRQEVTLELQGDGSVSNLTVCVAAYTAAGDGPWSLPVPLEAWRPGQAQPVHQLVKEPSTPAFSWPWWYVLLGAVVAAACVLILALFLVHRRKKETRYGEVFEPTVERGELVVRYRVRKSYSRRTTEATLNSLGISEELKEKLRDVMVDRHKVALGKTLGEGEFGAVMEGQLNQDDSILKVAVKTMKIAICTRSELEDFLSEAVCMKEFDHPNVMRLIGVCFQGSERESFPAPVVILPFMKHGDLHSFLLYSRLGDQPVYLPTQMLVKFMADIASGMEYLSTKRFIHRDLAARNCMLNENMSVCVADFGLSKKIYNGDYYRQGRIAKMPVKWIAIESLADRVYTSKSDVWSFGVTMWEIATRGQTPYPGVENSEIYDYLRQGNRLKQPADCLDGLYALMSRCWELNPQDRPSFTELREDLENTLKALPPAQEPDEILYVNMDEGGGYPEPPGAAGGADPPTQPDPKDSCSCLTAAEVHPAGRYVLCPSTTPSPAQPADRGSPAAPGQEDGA
Experiment: Phospho-Akt in-cell Western assay
Format: cell-based
Conditions: Hela cells, Axl antibody cross-linking stimulation, phospho-Akt readout
Procedure: Phospho-Akt in-Cell Western Assay
The compounds of the invention were tested in the following assay for their ability to inhibit Axl activity.
• Cell culture plate: 96 well assay plate (Corning 3610), white, clear bottom, tissue-culture treated. • Cells: Hela cells. • Starvation medium: For Axl stimulation: 0.5% FCS (fetal calf serum) in DMEM, plus Axl/Fc (extracellular domain of AXL fused to immunoglobulin Fc region) (R&D, 154-AL) 500 ng/mL. • For EGF (epidermal growth factor) stimulation: 0.5% FCS in DMEM (Dulbecco's modified Eagles medium). • Poly-L-Lysine 0.01% solution (the working solution): 10 μg/ml, dilute In PBS (phosphate buffered saline). • Axl antibody cross-linking: • 1st: Mouse anti-Axl (R&D, MAB154). • 2nd: Biotin-SP-conjugated AffiniPure goat anti-mouse IgG (H+L) (Jackson ImmunoResearch #115-065-003). • Fixing buffer: 4% formaldehyde in PBS. • Wash buffer: 0.1% TritonX-100 in PBS. • Quenching buffer: 3% H2O2, 0.1% Azide in wash buffer, Azide and hydrogen peroxide (H2O2) are added fresh. • Blocking buffer: 5% BSA in TBST (tris buffered saline plus 0.1% Tween 20). • Primary antibody: Rabbit anti-human Phospho-Akt antibody (Cell Signaling 9271): 1×250 diluted in blocking buffer. • Secondary antibody: HRP (horse radish peroxidase)-conjugated Goat anti-Rabbit secondary, stock solution: Jackson ImmunoResearch (Goat anti-Rabbit HRP, #111-035-144) 1:1 diluted in glycerol, store at −20° C. The working solution: 1×2000 dilution of stock in blocking buffer. • Chemiluminescent working solution (Pierce, 37030): SuperSignal ELISA (enzyme linked immunosorbant assay) Pico Chemiluminescent substrate. • Crystal Violet solution: Stock: 2.5% Crystal violet in methanol, filtered and kept at ambient temperature. The working solution: dilute the stock 1:20 with PBS immediately before use. • 10% SDS: working solution: 5% SDS (sodium dodecylsulfate), diluted in PBS Methods: Day 1:
A 96 well TC (tissue culture treated) plate was coated with 10 μg/mL poly-L-Lysine at 37° C. for 30 min, washed twice with PBS, and air-dried for 5 minutes before cells were added. Hela cells were seeded at 10,000 cells/well and the cells were starved in 100 μL starvation medium containing Axl/Fc for 24 hrs.
The cells were pre-treated with test compounds by adding 100 μL of 2× test compound to the starvation medium on the cells. The cells were incubated at 37° C. for 1 hr before stimulation.
The cells were stimulated by Axl-antibody cross-linking as follows: A 5×1st/2nd Axl antibody mixture was made (37.5 μg/mL 1st/100 μg/mL 2nd) in starvation medium and nutated at 4° C. with thorough mixing for 1-2 hours for clustering. The resulting mix was warmed to 37° C. 50 μL of 5× Axl 1st/2nd of antibody cluster was added to the cells and the cells were incubated at 37° C. for 5 min.
After 5 minutes stimulation, the plate was flicked to remove medium and the plate was tapped onto paper towels. Formaldehyde (4.0% in PBS, 100 μL) was added to fix the cells and the cells were incubated at ambient temperature for 20 min without shaking.
The cells were washed with a plate washer buffer to remove the formaldehyde solution. The plate was flicked to removed excess wash buffer and tapped onto paper towels. Quenching buffer (100 μL) was added to each well and the cells were incubated at ambient temperature for 20 minutes without shaking.
The cells were washed with a plate washer buffer to remove the quenching buffer. Blocking buffer (100 μL) was added and the cells were incubated at ambient temperature for at least an hour with gentle shaking.
The cells were washed with a plate washer buffer and diluted primary antibody (50 μL) was added to each well (blocking buffer was added to the negative control wells instead). The plates were incubated overnight at 4° C. with gentle shaking.
The wash buffer was removed, diluted secondary antibody (100 μL) was added, and the cells were incubated at ambient temperature for 1 hour with gentle shaking. […]

Compound: CN(C)CC(=O)N1CCc2ncc(Nc3nc(N)n(-c4cc(-c5ccccc5)c5c(n4)C4CCN5CC4)n3)cc2C1 [Compound 4, 1-(1,4-ethano-8-phenyl-1,2,3,4-tetrahydro-1,5-naphthyridin-6-yl)-N^3-(6-[((dimethyl)amino)methylcarbonyl]-5,6,7,8-tetrahydro-1,6-naphthyridine-3-yl)-1H-1,2,4-triazole-3,5-diamine]
IC50 (Table 2, formula (Ib)): < 1000 nM

Compound: CN(C)CC(=O)NC1CCc2ncc(Nc3nc(N)n(-c4cc(-c5ccccc5)c5c(n4)C4CCN5CC4)n3)cc2C1 (stereo not shown) [Compound 3, 1-(1,4-ethano-8-phenyl-1,2,3,4-tetrahydro-1,5-naphthyridin-6-yl)-N^3-(6-[(((dimethyl)amino)methyl)carbonylamino]-5,6,7,8-tetrahydroquinoline-3-yl)-1H-1,2,4-triazole-3,5-diamine]
IC50 (Table 1, formula (Ia)): < 1000 nM

Compound: CN(C)[C@H]1CCc2ccc(Nc3nc(N)n(-c4cc(-c5ccccc5)c5c(n4)C4CCN5CC4)n3)cc2CC1 [Compound 36, (7S)-1-(1,4-ethano-8-phenyl-1,2,3,4-tetrahydro-1,5-naphthyridin-6-yl)-N^3-(7-(dimethylamino)-6,7,8,9-tetrahydro-5H-benzo[7]annulene-2-yl)-1H-1,2,4-triazole-3,5-diamine]
IC50 (Table 4, formula (III)): > 20000 nM

Compound: CC(C)CN(CC(C)C)[C@H]1CCc2ccc(Nc3nc(N)n(-c4cc(-c5ccccc5)c5c(n4)C4CCN5CC4)n3)cc2CC1 [Compound 41, (7S)-1-(1,4-ethano-8-phenyl-1,2,3,4-tetrahydro-1,5-naphthyridin-6-yl)-N^3-(7-(diisobutylamino)-6,7,8,9-tetrahydro-5H-benzo[7]annulene-2-yl)-1H-1,2,4-triazole-3,5-diamine]
IC50 (Table 4, formula (III)): < 1000 nM

Compound: Nc1nc(Nc2cnc3c(c2)CN(C2CCCC2)CC3)nn1-c1cc(-c2ccccc2)c2c(n1)C1CCN2CC1 [Compound 6, 1-(1,4-ethano-8-phenyl-1,2,3,4-tetrahydro-1,5-naphthyridin-6-yl)-N^3-(6-(cyclopentyl)-5,6,7,8-tetrahydro-1,6-naphthyridine-3-yl)-1H-1,2,4-triazole-3,5-diamine]
IC50 (Table 2, formula (Ib)): < 1000 nM

Compound: C[C@H]1CN(c2ccc(Nc3nc(N)n(-c4nnc(-c5ccncc5)c5c4C4CCC5CC4)n3)cn2)CCN1CC1CC1 [Compound 24, (3S)-1-(4-(pyridin-4-yl)-5,8-ethano-5,6,7,8-tetrahydrophthalazine-1-yl)-N^3-(6-(4-(cyclopropylmethyl)-3-methylpiperazin-1-yl)pyridin-3-yl)-1H-1,2,4-triazole-3,5-diamine]
IC50 (Table 7, formula (V)): 1000 to 10000 nM

Compound: Nc1nc(Nc2cnc3c(c2)CNCC3)nn1-c1cc(-c2ccccc2)c2c(n1)C1CCN2CC1 [Compound 2, 1-(1,4-ethano-8-phenyl-1,2,3,4-tetrahydro-1,5-naphthyridin-6-yl)-N^3-(5,6,7,8-tetrahydro-1,6-naphthyridine-3-yl)-1H-1,2,4-triazole-3,5-diamine]
IC50 (Table 2, formula (Ib)): < 1000 nM

Compound: Cc1cccc(-c2nnc(-n3nc(Nc4ccc5c(c4)CCC(N4CCCC4)CC5)nc3N)c3c2C2CCC3CC2)c1 (stereo not shown) [Compound 30, 1-(4-(3-methylphenyl)-5,8-ethano-5,6,7,8-tetrahydrophthalazine-1-yl)-N^3-(7-(pyrrolidin-1-yl)-6,7,8,9-tetrahydro-5H-benzo[7]annulene-2-yl)-1H-1,2,4-triazole-3,5-diamine]
IC50 (Table 8, formula (VI)): < 1000 nM

Further lines, results first:

IC50 (Table 3, formula (II)): < 1000 nM
Compound: Nc1nc(Nc2ccc(N3CCC(N4CCCC4)CC3)c(F)c2)nn1-c1cc(-c2ccc(F)cc2)c2c(n1)C1CCN2CC1 [Compound 8, 1-(1,4-ethano-8-(4-fluorophenyl)-1,2,3,4-tetrahydro-1,5-naphthyridin-6-yl)-N^3-(4-(4-(pyrrolidin-1-yl)piperidinyl)-3-fluorophenyl)-1H-1,2,4-triazole-3,5-diamine]

IC50 (Table 9, formula (VII)): < 1000 nM
Compound: Nc1nc(Nc2ccc(N3CCC(N4CCCC4)CC3)c(F)c2)nn1-c1nc(-c2ccccc2)c2c(n1)C1CCN2CC1 [Compound 43, 1-(5,8-ethano-4-phenyl-5,6,7,8-tetrahydropyrido[3,2-d]pyrimidin-2-yl)-N^3-(4-(4-(pyrrolidin-1-yl)piperidinyl)-3-fluorophenyl)-1H-1,2,4-triazole-3,5-diamine]

IC50 (Table 4, formula (III)): < 1000 nM
Compound: CCN(CC)[C@H]1CCc2ccc(Nc3nc(N)n(-c4cc(-c5ccccc5)c5c(n4)C4CCN5CC4)n3)cc2CC1 [Compound 35, (7S)-1-(1,4-ethano-8-phenyl-1,2,3,4-tetrahydro-1,5-naphthyridin-6-yl)-N^3-(7-(diethylamino)-6,7,8,9-tetrahydro-5H-benzo[7]annulene-2-yl)-1H-1,2,4-triazole-3,5-diamine]

IC50 (Table 8, formula (VI)): < 1000 nM
Compound: Nc1nc(Nc2ccc3c(c2)CCC(N2CCCC2)CC3)nn1-c1nnc(-c2ccccc2)c2c1C1CCC2CC1 (stereo not shown) [Compound 28, 1-(4-phenyl-5,8-ethano-5,6,7,8-tetrahydrophthalazine-1-yl)-N^3-(7-(pyrrolidin-1-yl)-6,7,8,9-tetrahydro-5H-benzo[7]annulene-2-yl)-1H-1,2,4-triazole-3,5-diamine]

IC50 (Table 3, formula (II)): < 1000 nM
Compound: Cc1ccccc1-c1cc(-n2nc(Nc3ccc(N4CCC(N5CCCC5)CC4)c(F)c3)nc2N)nc2c1N1CCC2CC1 [Compound 12, 1-(1,4-ethano-8-(2-methylphenyl)-1,2,3,4-tetrahydro-1,5-naphthyridin-6-yl)-N^3-(4-(4-(pyrrolidin-1-yl)piperidinyl)-3-fluorophenyl)-1H-1,2,4-triazole-3,5-diamine]

— patent publication US9206161B2, “Bridged bicyclic heteroaryl substituted triazoles useful as Axl inhibitors” (Rigel Pharmaceuticals, Inc., priority 2008, dated 2015)
